Key:
Format in all cases: ADME, organism-based
[1] = Plasma concentration in C57BL/6J mouse at 30 mg/kg, po measured at 2 hrs post dose by LC-MS/MS analysis
[2] = Clearance in overnight fasted C57BL/6J mouse at 5 mg/kg, iv by LC-MS/MS analysis; details: in vivo
[3] = Bioavailability in overnight fasted C57BL/6J mouse at 5 mg/kg, iv by LC-MS/MS analysis; details: in vivo
[4] = Volume of distribution at steady state in overnight fasted C57BL/6J mouse at 5 mg/kg, iv by LC-MS/MS analysis; details: in vivo, read-out: Vdss
[5] = AUClast in overnight fasted C57BL/6J mouse at 20 mg/kg, po administered via gavage after 24 hrs by LC-MS/MS analysis; set-up: dose 20 mg/kg, time < 24 hr, route oral; details: in vivo
[6] = Cmax in overnight fasted C57BL/6J mouse at 20 mg/kg, po administered via gavage by LC-MS/MS analysis; set-up: dose 20 mg/kg, route oral; details: in vivo
[7] = Half life in overnight fasted C57BL/6J mouse at 20 mg/kg, po administered via gavage by LC-MS/MS analysis; details: in vivo

| concentration at 2 h [1] [nM] | clearance [2] [mL/min/kg] | bioavailability [3] [%] | Vd [4] [L/kg] | AUC(0-t) at 24 h [5] [ng·h/mL] | Cmax [6] [ng/mL] | half-life [7] [h] | SMILES |
| --- | --- | --- | --- | --- | --- | --- | --- |
| 280 | 45.3 | 10.8 | 0.856 | 785 | 913 |  | COc1cc(C2(C)CCCc3nc(SCc4ncccn4)n(-c4ccc(F)cc4)c32)ccc1F (stereo not given) |
| 2210 | 9.68 | 27.5 | 0.947 | 9350 | 2890 | 2.1 | COc1ccc(C2(C)CCCc3nc(SCc4c(F)cc(OCCOCCOCCN(C)C)cc4F)n(-c4ccc(F)cc4)c32)cc1OC (stereo not given) |
| 100 |  |  |  |  |  |  | COc1ccc(C2(C)CCCc3nc(SCc4ncccn4)n(-c4ccc(F)cc4)c32)cc1OC (stereo not given) |
| 200 | 58.4 | 9.44 | 1.43 | 527 | 507 |  | COc1cc(C2(C)CCCc3nc(SCc4ncccn4)n(-c4ccc(F)cc4)c32)ccc1Cl (stereo not given) |

Further lines, the molecule ahead of its results:

| SMILES | concentration at 2 h [1] [nM] | clearance [2] [mL/min/kg] | bioavailability [3] [%] | Vd [4] [L/kg] | AUC(0-t) at 24 h [5] [ng·h/mL] | Cmax [6] [ng/mL] | half-life [7] [h] |
| --- | --- | --- | --- | --- | --- | --- | --- |
| COc1cc(C2(C)CCCc3nc(SCc4c(F)ccc(OCCOCCOCCN(C)C)c4F)n(-c4ccc(F)cc4)c32)ccc1Cl (stereo not given) | 760 |  |  |  |  |  |  |
| COc1cc(C2(C)CCCc3nc(SCc4c(F)cc(OCCOCCOCCN(C)C)cc4F)n(-c4ccc(F)cc4)c32)ccc1Cl (stereo not given) | 1610 | 18.1 | 13.9 | 1.63 | 2540 | 918 | 1.33 |
| COc1cc(C2(C)CCCc3nc(SCc4c(F)cc(OCCOCCOCCN(C)C)cc4F)n(-c4ccc(F)cc4)c32)ccc1F (stereo not given) | 2110 | 10.2 | 22.1 | 0.818 | 7160 | 2410 | 2 |

— ChEMBL document CHEMBL3997854, “Discovery of Orally Efficacious Tetrahydrobenzimidazoles as TGR5 Agonists for Type 2 Diabetes” (ACS Med Chem Lett, 2017)
